Assay results reported in patent publication US9018214B2, “Bicyclic heterocycle compounds and their uses in therapy” (Astex Therapeutics Limited, priority 2011, dated 2015).
Where a name gives a salt, the structure may show the parent alone. Read-outs that look alike come from different tables or passages of the source.

Legend:
[1] = target: BIR3 domain of human XIAP (residues 252-350) (Homo sapiens (Human), UniProt P98170); experiment: XIAP in vitro competitive displacement binding assay (fluorescence polarization); settings: for IC50: read-out: IC50 or PI Xiap: IC50
[2] = target: BIR3 domain of human cIAP-1 (residues 267-363) (Homo sapiens (Human), UniProt Q13490); experiment: cIAP-1 in vitro competitive displacement binding assay (fluorescence polarization; Probe A AVPIK(5&6FAM)-amide or Probe B AbuRPFK(5&6FAM)-amide)
[3] = Probe A AVPIK(5&6FAM)-amide, read-out: IC50 or PI cIAP1: IC50
[4] = Probe B AbuRPFK(5&6FAM)-amide, read-out: IC50 or PI cIAP1: IC50
[5] = read-out: IC50 or PI cIAP1: IC50

C[C@@H]1CN(CC(=O)N2CC(C)(C)c3ccccc32)CCN1 [Example 21, 1-(3,3-Dimethyl-2,3-dihydro-indol-1-yl)-2-((R)-3-methyl-piperazin-1-yl)-ethanone]
inhibition at 160 µM ([1]; 1 h, @ 160 μM, read-out: IC50 or PI Xiap: PI): 45%
IC50 [2, 3]: 27 µM

C[C@@H]1CN(CC(=O)N2CC3(CCN(C(=O)OCc4ccccc4)CC3)c3ccc(Cl)cc32)CCN1 [Example 23, Benzyl 6-chloro-1-{2-[(3R)-3-methyl-piperazin-1-yl]acetyl}-1,2-dihydro-spiro[indole-3,4′-piperidine]-1′-carboxylate hydrochloride salt]
IC50 [1]: 18 µM
IC50 [2, 3]: 11 µM

C[C@@H]1CN(CC(=O)N2CCc3cc(F)c(-c4ccccc4)cc32)CCN1 [Example 24, 1-(5-Fluoro-6-phenyl-2,3-dihydro-indol-1-yl)-2-((R)-3-methyl-piperazin-1-yl)-ethanone hydrochloride salt]
IC50 [1]: 7.4 µM
IC50 [2]: < 10 µM
IC50 [2, 3]: 2 µM

CNS(=O)(=O)c1cc2c(cc1Br)CCN2C(=O)CN1CCN[C@H](C)C1 [Example 25, 5-Bromo-1-[2-((R)-3-methyl-piperazin-1-yl)-acetyl]-2,3-dihydro-1H-indole-6-sulfonic acid methylamide hydrochloride salt]
IC50 [1]: 1.6 µM
IC50 [2, 3]: 60 µM
IC50 [2, 4]: 61 µM

C[C@@H]1CN(CC(=O)N2CCc3cc(Br)c(S(=O)(=O)N(C)C)cc32)CCN1 [Example 26, 5-Bromo-1-[2-((R)-3-methyl-piperazin-1-yl)-acetyl]-2,3-dihydro-1H-indole-6-sulfonic acid dimethylamide hydrochloride salt]
IC50 [1]: 2.4 µM
IC50 [2, 3]: 27 µM

CNS(=O)(=O)c1ccc2c(c1)N(C(=O)CN1CCN[C@H](C)C1)CC2 [Example 27, 1-[2-((R)-3-Methyl-piperazin-1-yl)-acetyl]-2,3-dihydro-1H-indole-6-sulfonic acid methylamide]
IC50 [1]: 2.5 µM
IC50 [2, 3]: 59 µM

C[C@@H]1CN(CC(=O)N2CCc3ccc(OC(F)(F)F)cc32)CCN1 [Example 28, 2-((R)-3-Methyl-piperazin-1-yl)-1-(6-trifluoromethoxy-2,3-dihydro-indol-1-yl)-ethanone hydrochloride salt]
IC50 [1]: 17 µM
IC50 [2, 3]: 42 µM

CC(=O)N1CCC2(CC1)CN(C(=O)CN1CCN[C@H](C)C1)c1cc(Cl)ccc12 [Example 31, 1-{1′-Acetyl-6-chloro-1,2-dihydrospiro[indole-3,4′-piperidine]-1-yl}-2-[(3R)-3-methylpiperazin-1-yl]ethan-1-one hydrochloride salt]
inhibition at 49 µM ([1]; 1 h, @ 49 μM, read-out: IC50 or PI Xiap: PI): 51%
inhibition at 49 µM ([2]; 3 h, Probe A, @ 49 μM, read-out: IC50 or PI cIAP1: PI): 62%

C[C@@H]1CN(CC(=O)N2CCc3ccc(S(=O)(=O)N(C)C)cc32)CCN1 [Example 32, 1-[2-((R)-3-Methyl-piperazin-1-yl)-acetyl]-2,3-dihydro-1H-indole-6-sulfonic acid dimethylamide]
IC50 [1]: 2.6 µM
IC50 [2, 3]: 57 µM

C[C@@H]1CN(CC(=O)N2CCc3ccc(S(=O)(=O)c4ccccc4)cc32)CCN1 [Example 33, 1-(6-Benzene-sulfonyl-2,3-dihydro-indol-1-yl)-2-((R)-3-methyl-piperazin-1-yl)-ethanone hydrochloride salt]
IC50 [1]: 1.2 µM
IC50 [2]: < 10 µM
IC50 [2, 3]: 3.8 µM

C[C@@H]1CN(CC(=O)N2CCc3cccnc32)CCN1 [Example 36, 1-(2,3-Dihydro-pyrrolo[2,3-b]pyridin-1-yl)-2-((R)-3-methyl-piperazin-1-yl)-ethanone dihydrochloride salt]
IC50 [1]: 240 µM
inhibition at 500 µM ([2]; 3 h, read-out: IC50 or PI cIAP1: PI): 56%

C[C@@H]1CN(CC(=O)N2CCc3ccc(S(=O)(=O)N4CCCC4)cc32)CCN1 [Example 37, 2-((R)-3-Methyl-piperazin-1-yl)-1-[6-(pyrrolidine-1-sulfonyl)-2,3-dihydro-indol-1-yl]-ethanone hydrochloride salt]
IC50 [1]: 1.8 µM
IC50 [2, 3]: 23 µM

C[C@@H]1CN(CC(=O)N2CCc3cnc(-c4cc(Cl)ccc4F)cc32)CCN1 [Example 38, 1-[6-(5-Chloro-2-fluoro-phenyl)-2,3-dihydro-pyrrolo[3,2-c]pyridin-1-yl]-2-((R)-3-methyl-piperazin-1-yl)-ethanone hydrochloride salt]
IC50 [1]: 5.5 µM
IC50 [2]: < 10 µM
IC50 [2, 3]: 2.1 µM

C[C@@H]1CN(CC(=O)N2CC(C)(C)c3c(Cl)cc(Cl)cc32)CCN1 [Example 46, 1-(4,6-Dichloro-3,3-dimethyl-2,3-dihydro-indol-1-yl)-2-((R)-3-methyl-piperazin-1-yl)-ethanone hydrochloride salt]
IC50 [1]: 9 µM
IC50 [2, 4]: 4.8 µM

C[C@@H]1CN(CC(=O)N2CC3(CCCC3)c3ccc(Cl)cc32)CCN1 [Example 50, 1-{6′-Chloro-1′,2′-dihydrospiro[cyclopentane-1,3′-indole]-1′-yl}-2-[(3R)-3-methyl-piperazin-1-yl]ethan-1-one hydrochloride salt]
IC50 [1]: 14 µM
IC50 [2, 4]: 15 µM

CCS(=O)(=O)c1cc2c(cc1F)C(C)(C)CN2C(=O)CN1CCN[C@H](C)C1 [Example 51, 1-(6-Ethanesulfonyl-5-fluoro-3,3-dimethyl-2,3-dihydro-indol-1-yl)-2-((R)-3-methyl-piperazin-1-yl)-ethanone dihydrochloride salt]
IC50 [1]: 1.1 µM
IC50 [2, 5]: 3.2 µM

CC(C)S(=O)(=O)c1cc2c(cc1F)C(C)(C)CN2C(=O)CN1CCN[C@H](C)C1 [Example 52, 1-[5-Fluoro-3,3-dimethyl-6-(propane-2-sulfonyl)-2,3-dihydro-indol-1-yl]-2-((R)-3-methyl-piperazin-1-yl)-ethanone diydrochloride salt]
IC50 [1]: 0.95 µM
IC50 [2, 4]: 2.5 µM

C[C@@H]1CN(CC(=O)N2CC3(CC3)c3ccc(Cl)cc32)CCN1 [Example 53, 1-{6′-Chloro-1′,2′-dihydrospiro[cyclopropane-1,3′-indole]-1′-yl}-2-[(3R)-3-methyl-piperazin-1-yl]ethan-1-one hydrochloride salt]
IC50 [1]: 9.7 µM
IC50 [2, 4]: 9.8 µM

CNC(=O)[C@H]1CN[C@H](C)CN1CC(=O)N1CC(C)(C)c2ccc(Cl)cc21 [Example 54, (2R,5R)-1-[2-(6-Chloro-3,3-dimethyl-2,3-dihydro-indol-1-yl)-2-oxo-ethyl]-5-methyl-piperazine-2-carboxylic acid methylamide hydrochloride salt]
IC50 [1]: 1.8 µM
IC50 [2, 4]: 2.1 µM

C[C@@H]1CN(CC(=O)N2CC3(CCC3)c3ccc(Cl)cc32)CCN1 [Example 55, 1-{6′-Chloro-1′,2′-dihydrospiro[cyclobutane-1,3′-indole]-1′-yl}-2-[(3R)-3-methyl-piperazin-1-yl]ethan-1-one hydrochloride salt]
IC50 [1]: 12 µM
IC50 [2, 4]: 8.2 µM

C[C@@H]1CN(CC(=O)N2CC(C)(C)c3cc(F)c(S(=O)(=O)C4CC4)cc32)CCN1 [Example 57, 1-(6-Cyclopropane-sulfonyl-5-fluoro-3,3-dimethyl-2,3-dihydro-indol-1-yl)-2-((R)-3-methyl-piperazin-1-yl)-ethanone dihydrochloride salt]
IC50 [1]: 0.81 µM
IC50 [2, 5]: 2 µM

COC[C@H]1CN[C@H](C)CN1CC(=O)N1CC(C)(C)c2cc(OC)ncc21 [Example 65, 1-(5-Methoxy-3,3-dimethyl-2,3-dihydro-pyrrolo[2,3-c]pyridin-1-yl)-2-((2R,5R)-2-methoxymethyl-5-methyl-piperazin-1-yl)-ethanone hydrochloride salt]
IC50 [1]: 6 µM
IC50 [2, 4]: 1.3 µM

COC[C@H]1CN[C@H](C)CN1CC(=O)N1CC(C)(C)c2cc(=O)n(C)cc21 [Example 66, 1-[2-((2R,5R)-2-Methoxymethyl-5-methyl-piperazin-1-yl)-acetyl]-3,3,6-trimethyl-1,2,3,6-tetrahydro-pyrrolo[2,3-c]pyridin-5-one hydrochloride salt]
inhibition at 10 µM ([1]; 1 h, @ 10 μM, read-out: IC50 or PI Xiap: PI): 44%
inhibition at 3 µM ([2]; 3 h, Probe B, @ 3 μM, read-out: IC50 or PI cIAP1: PI): 53%

COC[C@H]1CN[C@H](C)CN1CC(=O)N1CC(C)(C)c2cc(=O)n(CC(C)C)cc21 [Example 73, 6-Isobutyl-1-[2-((2R,5R)-2-methoxy-methyl-5-methyl-piperazin-1-yl)-acetyl]-3,3-dimethyl-1,2,3,6-tetrahydro-pyrrolo[2,3-c]pyridin-5-one hydrochloride salt]
inhibition at 3 µM ([1]; 1 h, @ 3 μM, read-out: IC50 or PI Xiap: PI): 46%
inhibition at 1 µM ([2]; 3 h, Probe B, @ 1 μM, read-out: IC50 or PI cIAP1: PI): 60%

COC[C@H]1CN[C@H](C)CN1CC(=O)N1CC(C)(C)c2cnc(Nc3ccccc3)cc21 [Example 81, 1-(3,3-Dimethyl-6-phenylamino-2,3-dihydro-pyrrolo[3,2-c]pyridin-1-yl)-2-((2R,5R)-2-methoxymethyl-5-methyl-piperazin-1-yl)-ethanone hydrochloride salt]
inhibition at 300 µM ([1]; 1 h, @ 300 μM, read-out: IC50 or PI Xiap: PI): 51%
inhibition at 100 µM ([2]; 3 h, Probe B, @ 100 μM, read-out: IC50 or PI cIAP1: PI): 36%

COC[C@H]1CN[C@H](C)CN1CC(=O)N1CC(C)(C)c2cnc(N(C)c3ccccc3)cc21 [Example 84, 1-[3,3-Dimethyl-6-(methyl-phenyl-amino)-2,3-dihydro-pyrrolo[3,2-c]pyridin-1-yl]-2-((2R,5R)-2-methoxymethyl-5-methyl-piperazin-1-yl)-ethanone hydrochloride salt]
IC50 [1]: 8.8 µM
IC50 [2]: < 10 µM
IC50 [2, 4]: 1.3 µM

C[C@@H]1CN(CC(=O)N2CCc3ccccc32)CCN1 [Example 85, 1-(2,3-Dihydro-1H-indol-1-yl)-2-[(3R)-3-methylpiperazin-1-yl]ethan-1-one, hydrochloride salt]
inhibition at 500 µM ([1]; 1 h, @ 500 μM, read-out: IC50 or PI Xiap: PI): 52%
inhibition at 250 µM ([2]; 3 h, Probe A, @ 250 μM, read-out: IC50 or PI cIAP1: PI): 45%
